Measurements reported in article PMC11671014 (PLOS Pathogens, 2024).
Read-outs that look alike come from different tables or passages of the source.

Tests used:
[1] = tested on: Pf3D7-pfs16-CBG99 gametocytes, immature (stage II/III) and mature (stage V); experiment: Gametocyte killing assay (luciferase); assay type: cell-based; conditions: Plasmodium falciparum, 48 h
Description: Gametocytogenesis was induced on a tightly synchronised (>97% rings) asexual parasite culture (Pf3D7-pfs16-CBG99 (kind gift from Pietro Alano), 0.5% parasitemia and 6% hematocrit) with a combination of nutrient starvation and a decrease in hematocrit, as previously described. For immature gametocytes (>90% stage II/III), cultures were exposed to 50 mM N-acetyl glucosamine (NAG) on days 1–4 to eliminate residual asexual parasites and harvested at days 5–6. For mature (>95% stage V) gametocytes, NAG treatment occurred from days 3–7 and harvest at day 13. Stage II/III and V gametocyte cultures (2 % gametocytaemia 1.5 % haematocrit, 150 μL/well) were exposed to compounds and incubated at 37°C for 48 h under hypoxic conditions, after which luciferase activity was determined with a non-lysing D-luciferin substrate (1mM in 0.1M citrate buffer, pH 5.5, 100 μL) and bioluminescence was detected with a 2 s integration time with a GloMax-Multi Detection System with Instinct software.

Primary hepatocytes = experiment: Toxicity to primary hepatocyte host cells in the liver stage assay; assay type: cell-based, human; conditions: Homo sapiens, Hepatocyte, host cells of the NF135 experiment
Description: (§1) Activity against liver stage parasites was performed using a modification of published procedures. Briefly, cryopreserved human primary hepatocytes (NF175: H1500.H15B+ Lot No. HC0-6, TebuBio or NF135: F00995-P Lot No. IRZ, BioIVT) were thawed and seeded at 18,000 cells per well in collagen-coated 384-well microtiter plates in medium containing 10% heat inactivated fetal bovine serum (hiFBS). Cells were cultured at 37°C in 5% CO2. For NF175, medium was replaced by fresh medium containing 10% hiFBS, 5 h post plating. For NF135, medium was replaced by medium containing 0.2% BSA, 24 h post plating. 48 h post plating, salivary glands from Plasmodium-NF175 or NF135-infected Anopheles stephensi mosquitoes were dissected, added to the hepatocytes (10,000 per well/ NF175; or 12,500 per well/ NF135) and allowed to infect for 3 hours. Sporozoites were then aspirated, and compounds diluted in medium containing 10% hiFBS or 0.2% BSA, were added to the hepatocytes. Medium containing 10% hiFBS or 0.2% BSA and compounds was refreshed daily for four days. Hepatocytes were fixed with ice-cold methanol and samples were blocked with 10% hiFBS in PBS. Schizonts were stained with rabbit anti-HSP70 in 10% hiFBS for 1–2 h followed by incubation with a mixture of secondary goat anti-rabbit AlexaFluor 594 antibody and 4′,6-diamidine-2′-phenylindole dihydrochloride (DAPI) in 10% hiFBS for 30 min. Samples were washed with PBS containing 0.05% Tween 20 between different steps. Cells were imaged on a PicoExpress high content imager, and images were analysed automatically using CellReporterXpress software. Data were analysed by logistic regression using a four-parameter (Hill equation) model and a least-squares method to find the best fit.

[2] = tested on: P. falciparum liver stage schizont (NF135); experiment: Liver stage schizont assay in primary human hepatocytes (NF135); assay type: cell-based; conditions: Plasmodium falciparum, Hepatocyte, 96 h, four days
Description: as §1

[3] = tested on: stage V NF54 strain male and female gametocytes; experiment: P. falciparum Dual Gamete Formation Assay (PfDGFA); assay type: cell-based; conditions: Plasmodium falciparum, 48 h
Description: Inhibition of the viability of stage V male and female gametocytes was assessed in the P. falciparum Dual Gamete Formation Assay (PfDGFA) as described previously. Briefly, mature stage V NF54 strain gametocytes were incubated with test molecules for 48 h in 384-well plates at 37°C. Gametogenesis was then triggered by cooling the plates to room temperature and addition of xanthurenic acid-containing activating medium (also containing anti-Pfs25 antibody (Mab 4B7) conjugated to a Cy3 fluorophore). Twenty minutes after activation, exflagellation was imaged in all wells of the plate using a x4 objective and automated brightfield microscopy. The plate was then incubated at 20°C for a further 24 h in the dark. Thereafter, female gamete formation was quantified by automated identification of Pfs25-positive cells. Automated counts were transformed to percent inhibition values with reference to positive 100 nM Cabamiquine (DDD498) and negative (DMSO) controls. Data represent the means of multiple independent biological repeats.

[4] = tested on: P. falciparum (strain 3D7A); experiment: Parasite Reduction Rate (PRR) estimation; assay type: cell-based, Plasmodium falciparum; conditions: 10 x IC50
Description: PRR was assessed using a standardized method. P. falciparum (strain 3D7A, MRA-151), contributed by David Walliker, was obtained through BEI Resources, NIAID, NIH. Cultures of parasites (~90% ring stage) were treated with compounds for 120 h, with daily renewal. Samples of parasites were taken at 0, 24, 48, 72, 96 and 120 h. Compounds were washed out and four independent 3-fold serial dilutions were established in 96-well plates, with fresh RBCs and culture medium. After 18 days, and again at 22 days, samples were taken to examine growth using SYBR Green I in an EnVision Multilabel Plate Reader (Perkin Elmer) and analysed using Excel and Grafit 5.0 software. The human biological samples were sourced ethically, and their research use was in accord with the terms of the informed consents under an IRB/EC approved protocol.

PfTyrRS [5] = target: T1, PfTyrRS (Plasmodium falciparum, UniProt Q8IAR7); experiment: ATP consumption by PfTyrRS (Kinase Glo); assay type: biochemical; conditions: PfTyrRS 25 nM, ATP 10 μM, tyrosine 200 μM, cognate tRNA^Tyr 4.8 μM, 37°C 1 h; read-out: Inhibition of PfTyrRS (Kinase Glo) IC50
T1 sequence (Q8IAR7 entry or part of it): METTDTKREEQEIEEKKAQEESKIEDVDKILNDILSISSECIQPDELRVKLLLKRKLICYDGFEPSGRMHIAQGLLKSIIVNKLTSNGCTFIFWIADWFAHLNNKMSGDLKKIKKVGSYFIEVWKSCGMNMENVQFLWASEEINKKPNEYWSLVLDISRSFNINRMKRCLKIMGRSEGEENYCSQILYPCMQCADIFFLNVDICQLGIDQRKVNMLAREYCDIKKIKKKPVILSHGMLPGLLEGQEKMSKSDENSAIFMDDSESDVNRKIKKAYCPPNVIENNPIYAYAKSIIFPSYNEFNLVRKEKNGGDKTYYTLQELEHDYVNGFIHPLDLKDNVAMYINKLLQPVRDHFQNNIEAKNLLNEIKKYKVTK
Description: Consumption of ATP was measured using a luciferase-based assay as per the manufacturer’s instructions (Kinase-Glo Luminescent Kinase Assay, Promega).

[6] = tested on: P. falciparum (3D7, ring stage) cultures; experiment: P. falciparum 3D7 72-h growth inhibition, lactate dehydrogenase (PfLDH) assay; assay type: cell-based; conditions: Plasmodium falciparum, 72 h exposure
Description: Routine analyses of antimalarial activity against P. falciparum 3D7 was tested by TCGLS (Kolkata, India) using the lactate dehydrogenase (PfLDH) growth inhibition assay as previously described. […] P. falciparum strain (3D7) was obtained from BEI Resources.

PfTyrRS [7] = target: T1, PfTyrRS; experiment: Differential scanning fluorimetry (DSF) of PfTyrRS; assay type: binding
Description: The effect on ML471 and analogues on the thermal stability of TyrRS enzymes was assayed as previously described. […] SYPRO Orange (Sigma-Aldrich; 5,000X concentrate in DMSO) was added to the reaction mixture at a final concentration of 5X. 25 μL of the sample was added into each well of a 96-well qPCR plate (Applied Biosystems). The plate was sealed and analysed using StepOnePlus Real-Time PCR system (Applied Biosystems). The samples were heated from 20°C to 90°C with a 1% continuous gradient. The thermal unfolding curve was plotted as the first derivative curve of the raw fluorescence values. The melting temperature (Tm), defined as the peak of the first derivative curve, was used to assess the thermal stability of protein-ligand complexes.

HepG2 cells = experiment: HepG2 72-h viability, CellTiter-Glo; assay type: cell-based; conditions: Homo sapiens, 72 h exposure
Description: The HepG2 (Human hepatocyte carcinoma) cell line was procured from ATCC (American Type Culture Collection, Manassas, USA; HB-8065) and viability assessed using CellTiter-Glo luminescent cell viability assay reagents (Promega). For the assay, 2,000 cells/well were plated in 384-well plates 24 h prior to the experiment and incubated at 37°C in a CO2 incubator. The medium was removed; and cells were treated with fresh medium containing either vehicle (0.5% DMSO) or serially diluted compounds or doxorubicin (1.3 nM to 25 μM) in a final volume of 50 μL/well and further incubated for 72 h at 37°C in a CO2 incubator. […] Following incubation, 25 μL of medium was discarded and 25 μl of CellTiter-Glo reagent was added to each well and the plate was kept on a plate shaker for 15 min at 25°C with shaking at 300 rpm. Luminescence signals were measured in a PHERAstar FSX reader (BMG LABTECH).

[8] = read-out: Early stage gametocytes IC50
[9] = read-out: Mature stage gametocytes IC50

SMILES: CS(=O)(=O)c1ccc(-c2cnc(N)c(-c3ccc(C(F)(F)F)nc3)c2)cc1 [MMV390048, reference compound]
- IC50 [1, 8]: 138 ± 8 nM
- IC50 [1, 9]: 150 ± 20 nM
- IC50 (Primary hepatocytes): > 100 nM
- IC50 [2]: 23.3 ± 13.3 nM

SMILES: CN(C)c1ccc2nc3ccc(=[N+](C)C)cc-3sc2c1 [Methylene blue, reference compound]
- IC50 [1, 8]: 62 ± 11 nM
- IC50 [1, 9]: 353 ± 63 nM

SMILES: O=C(NCCN1CCCC1)c1cc(-c2ccc(CN3CCOCC3)cc2)nc2ccc(F)cc12 [Cabamiquine, reference compound]
- IC50 ([3]; female, read-out: Dual gamete formation assay (female) IC50(48h)): 2.2 ± 0.1 nM
- IC50 ([3]; male, read-out: Dual gamete formation assay (male) IC50(48h)): 2.3 ± 0.4 nM

SMILES: CCc1nc(N)nc(N)c1-c1ccc(Cl)cc1 [Pyrimethamine, reference compound]
- Lag phase [4]: 24 h
- Log PRR [4]: 3.7
- PCT99.9% [4]: 56 h
- Slope [4]: -0.078

SMILES: CC(=O)c1nn([C@@H]2O[C@H](COS(N)(=O)=O)[C@@H](O)[C@H]2O)c2ncnc(N)c12 [ML111]
- IC50 (PfTyrRS [5]): 34000 ± 14000 nM
- IC50 [6]: 4.3 ± 0.7 nM
- ΔTm at 50 µM (PfTyrRS [7]; 50 μM sulfamate, ATP, tyrosine, PftRNA^Tyr, 37°C 2 h, read-out: PfTyrRS binding (DSF) Delta Tm): 15.1 ± 0.2 °C
- Kd (PfTyrRS [7]; estimated from DSF with an irreversible thermal unfolding model, read-out: PfTyrRS binding (DSF) apparent KD): 0.7 nM
- PfTyrRS Tm (PfTyrRS [7]; with sulfamate, ATP, tyrosine and tRNA, apo 49.9 ± 0.6): 65.0 ± 0.5 °C
- IC50 (HepG2 cells): > 50000 nM
